Measured values published in patent publication US6737383B1, “Herbicidal oxadiazolidines” (priority 1999, dated 2004).

Legend:
soybean = assay: Test B pre/postemergence soybean; assay type: in vivo, Glycine max
Method in brief: (§1)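 Herbicidal effect was estimated by eye on a ten-point control scale after plants spent twelve to sixteen days in a greenhouse following soil or foliar treatment. Foliar sprays targeted plants at one to four leaves; all doses were formulated in a non-phytotoxic solvent with surfactant.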

morningglory = assay: Test B pre/postemergence morningglory; assay type: in vivo, Ipomoea hederacea
Method in brief: as §1

pigweed = assay: Test B pre/postemergence pigweed; assay type: in vivo, Amaranthus retroflexus
Method in brief: as §1

cocklebur = assay: Test B pre/postemergence cocklebur; assay type: in vivo, Xanthium strumarium
Method in brief: as §1

[1] = Preemergence, Rate 62 g/ha, scale of 0 to 10 where 0 is no effect and 10 is complete control
[2] = Preemergence, Rate 125 g/ha, 0 is no effect, 10 is complete control
[3] = Preemergence, Rate 250 g/ha, scale 0 to 10, 0 is no effect, 10 is complete control
[4] = Preemergence, Rate 500 g/ha, scale of 0 to 10 where 0 is no effect and 10 is complete control
[5] = Rate 62 g/ha, Postemergence, scale of 0 to 10 where 0 is no effect and 10 is complete control
[6] = Rate 125 g/ha, Postemergence, scale 0 to 10
[7] = Rate 500 g/ha, Postemergence, scale 0 to 10
[8] = Preemergence, Rate 250 g/ha, scale of 0 to 10 where 0 is no effect and 10 is complete control
[9] = Rate 125 g/ha, Preemergence, scale of 0 to 10 where 0 is no effect and 10 is complete control
[10] = Rate 500 g/ha, Postemergence, scale 0 to 10, 0 no effect, 10 complete control
[11] = Postemergence, Rate 1000 g/ha, scale 0 to 10 (0 no effect, 10 complete control)
[12] = Rate 1000 g/ha, Preemergence, scale 0 to 10 (0 no effect, 10 complete control)
[13] = Rate 125 g/ha, Postemergence, scale of 0 to 10 where 0 is no effect and 10 is complete control
[14] = Rate 250 g/ha, Postemergence, scale of 0 to 10 where 0 is no effect and 10 is complete control

Row | SMILES | Soybean plant response rating (soybean; [1]) | Plant response rating, Soybean (soybean; [4]) | Morningglory plant response rating (morningglory; [1]) | Plant response rating, Morningglory (morningglory; [4]) | Plant response rating (0 to 10; 0 is no effect, 10 is complete control), Morningglory (morningglory; Rate 250 g/ha, Postemergence) | Redroot pigweed plant response rating (pigweed; [1]) | Plant response rating, Redroot pigweed (pigweed; [4]) | Plant response rating (0 to 10; 0 is no effect, 10 is complete control), Redroot pigweed (pigweed; Rate 250 g/ha, Postemergence) | Cocklebur plant response rating (cocklebur; [1]) | Plant response rating, Cocklebur (cocklebur; [4]) | Cocklebur plant response rating (cocklebur; [5]) | Cocklebur plant response rating (cocklebur; [6]) | Plant response rating (0 to 10; 0 is no effect, 10 is complete control), Cocklebur (cocklebur; Rate 250 g/ha, Postemergence) | Soybean plant response rating (soybean; [8]) | Soybean plant response rating (soybean; [9]) | Morningglory plant response rating (morningglory; [8]) | Morningglory plant response rating (morningglory; [9]) | Morningglory plant response rating (morningglory; [10]) | Redroot pigweed plant response rating (pigweed; [8]) | Redroot pigweed plant response rating (pigweed; [9]) | other results
1 | Cc1nc(C)c(-n2c(=O)on(C(=O)N(c3ccc(F)cc3)C(C)C)c2=O)s1 [Compound 198] | 0 | 0 | 0 | 0 | 2 | 0 | 0 | 0 | 0 | 0 | 0 | 0 | 0 |  |  |  |  |  |  |  | Soybean plant response rating (0 to 10 scale) (soybean; [2]): 0; Soybean plant response rating (soybean; [3]): 0; Soybean plant response rating (soybean; [5]): 0; Soybean plant response rating (soybean; [6]): 0; Plant response rating (0 to 10; 0 is no effect, 10 is complete control), Soybean (soybean; Rate 250 g/ha, Postemergence): 0; Soybean plant response rating (soybean; [7]): 1; Morningglory plant response rating (0 to 10 scale) (morningglory; [2]): 0; Morningglory plant response rating (morningglory; [3]): 0; Morningglory plant response rating (morningglory; [5]): 0; Morningglory plant response rating (morningglory; [6]): 0; Morningglory plant response rating (morningglory; [7]): 3; Redroot pigweed plant response rating (0 to 10 scale) (pigweed; [2]): 0; Redroot pigweed plant response rating (pigweed; [3]): 0; Redroot pigweed plant response rating (pigweed; [5]): 0; Redroot pigweed plant response rating (pigweed; [6]): 0; Redroot pigweed plant response rating (pigweed; [7]): 0; Cocklebur plant response rating (0 to 10 scale) (cocklebur; [2]): 0; Cocklebur plant response rating (cocklebur; [3]): 0; Cocklebur plant response rating (cocklebur; [7]): 0
2 | COc1cc(C)cc(C)c1-n1c(=O)on(C(=O)N(c2ccc(F)cc2)C(C)C)c1=O [Compound 222] | 0 | 0 | 0 | 0 | 3 | 0 | 4 | 0 | 0 |  | 0 | 0 | 0 | 0 | 0 | 0 | 0 | 3 | 0 | 0 | Soybean plant response rating (soybean; [5]): 2; Soybean plant response rating (soybean; [6]): 3; Plant response rating (0 to 10; 0 is no effect, 10 is complete control), Soybean (soybean; Rate 250 g/ha, Postemergence): 3; Soybean plant response rating (soybean; [10]): 2; Morningglory plant response rating (morningglory; [5]): 1; Morningglory plant response rating (morningglory; [6]): 1; Redroot pigweed plant response rating (pigweed; [5]): 0; Redroot pigweed plant response rating (pigweed; [6]): 0; Redroot pigweed plant response rating (pigweed; [10]): 0; Cocklebur plant response rating (cocklebur; [8]): 0; Cocklebur plant response rating (cocklebur; [9]): 0; Cocklebur plant response rating (cocklebur; [10]): 0
3 | Cc1ccccc1-n1c(=O)on(C(=O)N(c2ccc(C(C)C)cc2)C(C)C)c1=O [Compound 231] | 0 | 0 | 0 | 6 | 3 | 0 | 0 | 0 | 0 | 0 | 0 | 0 | 0 | 0 | 0 | 0 | 0 | 4 | 0 | 0 | Soybean plant response rating (soybean; [5]): 0; Soybean plant response rating (soybean; [6]): 1; Plant response rating (0 to 10; 0 is no effect, 10 is complete control), Soybean (soybean; Rate 250 g/ha, Postemergence): 1; Soybean plant response rating (soybean; [10]): 1; Morningglory plant response rating (morningglory; [5]): 1; Morningglory plant response rating (morningglory; [6]): 2; Redroot pigweed plant response rating (pigweed; [5]): 0; Redroot pigweed plant response rating (pigweed; [6]): 0; Redroot pigweed plant response rating (pigweed; [10]): 0; Cocklebur plant response rating (cocklebur; [8]): 0; Cocklebur plant response rating (cocklebur; [9]): 0; Cocklebur plant response rating (cocklebur; [10]): 0
4 | CCOC(=O)C(C)N(C(=O)n1oc(=O)n(-c2ccccc2C)c1=O)c1ccc(F)cc1 (stereo not drawn) [Compound 247] |  | 0 |  | 0 | 2 |  | 0 | 0 |  | 0 |  | 0 | 0 | 0 | 0 | 0 | 0 | 2 | 0 | 0 | Soybean plant response rating (soybean; [11]): 1; Soybean plant response rating (soybean; [10]): 0; Plant response rating, Soybean (soybean; [12]): 0; Morningglory plant response rating (morningglory; [11]): 4; Plant response rating, Morningglory (morningglory; [12]): 0; Redroot pigweed plant response rating (pigweed; [11]): 0; Redroot pigweed plant response rating (pigweed; [10]): 0; Plant response rating, Redroot pigweed (pigweed; [12]): 0; Cocklebur plant response rating (cocklebur; [11]): 0; Cocklebur plant response rating (cocklebur; [8]): 0; Cocklebur plant response rating (cocklebur; [9]): 0; Cocklebur plant response rating (cocklebur; [10]): 0; Plant response rating, Cocklebur (cocklebur; [12]): 0
5 | Cc1ccccc1-n1c(=O)on(C(=O)N(c2ccc(Oc3ccccc3)cc2)C(C)C)c1=O [Compound 268] | 0 | 0 | 0 | 0 |  | 0 | 0 |  | 0 | 0 | 0 |  |  | 0 | 0 | 0 | 0 | 7 | 0 | 0 | Soybean plant response rating (soybean; [13]): 0; Plant response rating, Soybean (soybean; [14]): 0; Morningglory plant response rating (morningglory; [13]): 2; Plant response rating, Morningglory (morningglory; [14]): 2; Redroot pigweed plant response rating (pigweed; [13]): 0; Plant response rating, Redroot pigweed (pigweed; [14]): 0; Cocklebur plant response rating (cocklebur; [8]): 0; Cocklebur plant response rating (cocklebur; [13]): 0; Cocklebur plant response rating (cocklebur; [9]): 0; Plant response rating, Cocklebur (cocklebur; [14]): 0; Cocklebur plant response rating (cocklebur; [10]): 0
